Laboratory results reported in patent US20240238199A1, “STABLE LIQUID PHARMACEUTICAL COMPOSITIONS HAVING HIGH DRUG LOADINGS OF MEDIUM CHAIN TRIGLYCERIDES AND METHODS RELATED THERETO” (CERECIN INC., priority 2021, published 2024).

Columns and labels:
[1] = Emulsion physical stability (visual / overall assessment); format: physicochemical; conditions: at pH7
Excerpt: As described herein, the pharmaceutical compositions of the disclosure may form a stable liquid emulsion at ambient conditions. An emulsion refers to a composition which, when diluted with water or other aqueous medium and gently mixed, yields a stable oil/water emulsion with a mean particle size of less than about 1 μm, but greater than about 100 nm, (i.e., 0.1-1 μm) and which is generally polydisperse. Such an emulsion is stable, meaning there is no visibly detectable phase separation and that there is no visibly detectable crystallization.
Equal mix of Phospholipon 90 G, Kolliphor RH40 and Capmul PG-8 was also very stable. Particle size evolution of Phospholipon 90G, Kolliphor RH40, Capmul PG-8 emulsions prepared via Ultra Turrax emulsification are shown in FIG. 4, and particle size evolution of 10 Phospholipon 90G, Kolliphor RH40, Capmul PG-8 emulsions: prepared via Silverson & High Pressure Homogeniser emulsification are shown in FIG. 5. Visual appearance of Phospholipon 90G, Kolliphor RH40, Capmul PG-8 emulsions under a 1 month stability study are shown in FIG. 6.

[2] = Gamma irradiation: physiochemical testing pre & post treatment; format: physicochemical
Excerpt: Gamma irradiation is a commonly accepted method of sterilizing componentry and reducing bio load in natural materials. Exemplary formulations were irradiated at various dosages and then assessed for the impact of irradiation on product performance.

Row | SMILES | effect on emulsion stability [1] | Appearance: Complies/fails ([2]; gamma irradiation 10 kGy) | Assay: Complies/fails ([2]; gamma irradiation 10 kGy) | Related substances: Complies/fails ([2]; gamma irradiation 10 kGy) | Related substances: result after treatment ([2]; gamma irradiation 10 kGy) | Appearance: Complies/fails ([2]; gamma irradiation 15 kGy) | Assay: Complies/fails ([2]; gamma irradiation 15 kGy) | Related substances: Complies/fails ([2]; gamma irradiation 15 kGy) | Related substances: result after treatment ([2]; gamma irradiation 15 kGy) | Appearance: Complies/fails ([2]; gamma irradiation 25 kGy) | Assay: Complies/fails ([2]; gamma irradiation 25 kGy) | Related substances: Complies/fails ([2]; gamma irradiation 25 kGy) | Related substances: result after treatment ([2]; gamma irradiation 25 kGy)
1 | CCCCCCCC/C=C\CCCCCCCC(=O)[O-].[Na+] [Sodium oleate] | slight destabilizing effect |  |  |  |  |  |  |  |  |  |  |  | 
2 | CCCCCCCC(=O)OCC(COC(=O)CCCCCCC)OC(=O)CCCCCCC [Tricaprylin] |  | Complies | Complies | Complies* | profile changes | Complies | Complies | Complies* | profile changes | Complies | Complies | Complies* | profile changes
